Measured values taken from PubChem BioAssay AID270 (DTP/NCI, 2004).
Records with an inconclusive call do not appear.

Tested on: BDF1 mice, s.c. Lewis lung carcinoma, T/C %
Experiment: NCI In Vivo Anticancer Drug Screen. Data for tumor model Lewis Lung Carcinoma (subcutaneous) in B6D2F1 (BDF1) mice
Method in brief: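 Transplanted tumors grown in mice; compound vs vehicle dosing; endpoint survival or tumor size; ratio T/C.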

[1] = endpoint: median survival time, dose: 6.25 mg/kg/injection, schedule: Q01DX009 (ip), vehicle: saline, higher = longer survival
[2] = endpoint: median survival time, dose: 12.5 mg/kg/injection, schedule: Q01DX009 (ip), vehicle: saline, higher = longer survival
[3] = endpoint: median survival time, dose: 25.0 mg/kg/injection, schedule: Q01DX009 (ip), vehicle: saline with Tween-80, higher = longer survival

CN(/N=N/c1nc[nH]c1C(N)=O)C(C)(C)C
T/C (endpoint: median survival time, dose: 200.0 mg/kg/injection, schedule: Q01DX009 (ip), vehicle: Klucel (hydroxypropylcellulose) (HPC), higher = longer survival): 109 % of control
T/C (endpoint: median survival time, dose: 400.0 mg/kg/injection, schedule: Q01DX009 (ip), vehicle: Klucel (hydroxypropylcellulose) (HPC), higher = longer survival): 90 % of control

O=c1ccc2ccccc2o1
T/C (endpoint: mean tumor weight, dose: 110.0 mg/kg/injection, schedule: Q01DX011 (ip), vehicle: carboxymethylcellulose (CMC), higher = larger tumour): 57 % of control
T/C (endpoint: mean tumor weight, dose: 165.0 mg/kg/injection, schedule: Q01DX011 (ip), vehicle: carboxymethylcellulose (CMC), higher = larger tumour): 63 % of control

c1ccc(OP(Oc2ccccc2)Oc2ccccc2)cc1
T/C (endpoint: mean tumor weight, dose: 37.0 mg/kg/injection, schedule: Q01DX011 (ip), vehicle: other, higher = larger tumour): 110 % of control
T/C (endpoint: mean tumor weight, dose: 55.0 mg/kg/injection, schedule: Q01DX011 (ip), vehicle: other, higher = larger tumour): 103 % of control
T/C (endpoint: mean tumor weight, dose: 83.0 mg/kg/injection, schedule: Q01DX011 (ip), vehicle: other, higher = larger tumour): 91 % of control
T/C (endpoint: mean tumor weight, dose: 125.0 mg/kg/injection, schedule: Q01DX011 (ip), vehicle: other, higher = larger tumour): 79 % of control

C[C@]12CCC(=O)C=C1CC[C@@H]1[C@@H]2C(=O)C[C@]2(C)C3=CC(=O)O[C@H]3C[C@@H]12
T/C (endpoint: median survival time, dose: 3.13 mg/kg/injection, schedule: Q01DX009 (ip), vehicle: saline, higher = longer survival): 106 % of control
T/C [1]: 109 % of control
T/C (endpoint: median survival time, dose: 12.5 mg/kg/injection, schedule: Q01DX009 (ip), vehicle: saline with Tween-80, higher = longer survival): 116 % of control
T/C [2]: 100 % of control
T/C [3]: 91 % of control

CCCCCC(CN(C)C)C(O)/C=C/c1ccccc1Cl (configuration not stated)
T/C (endpoint: median survival time, dose: 3.12 mg/kg/injection, schedule: Q01DX009 (ip), vehicle: saline, higher = longer survival): 99 % of control
T/C [1]: 95 % of control
T/C [2]: 92 % of control
T/C (endpoint: median survival time, dose: 25.0 mg/kg/injection, schedule: Q01DX009 (ip), vehicle: saline, higher = longer survival): 99 % of control
T/C (endpoint: median survival time, dose: 50.0 mg/kg/injection, schedule: Q01DX009 (ip), vehicle: saline, higher = longer survival): 108 % of control

O=NN(CCCl)C(=O)N[C@H]1CCC[C@@H](C(=O)O)C1
T/C (endpoint: median survival time, dose: 14.0 mg/kg/injection, schedule: Q01DX001 (ip), vehicle: Klucel (hydroxypropylcellulose) (HPC), higher = longer survival): 88 % of control
T/C (endpoint: median survival time, dose: 32.0 mg/kg/injection, schedule: Q01DX001 (ip), vehicle: Klucel (hydroxypropylcellulose) (HPC), higher = longer survival): 93 % of control

CC[C@H]1CN2CCc3cc(OC)c(OC)cc3[C@@H]2C[C@@H]1C[C@H]1NCCc2cc(O)c(OC)cc21
T/C (endpoint: mean tumor weight, dose: 1.25 mg/kg/injection, schedule: Q01DX011 (ip), vehicle: saline, higher = larger tumour): 94 % of control
T/C (endpoint: mean tumor weight, dose: 2.5 mg/kg/injection, schedule: Q01DX011 (ip), vehicle: saline, higher = larger tumour): 55 % of control
T/C (endpoint: mean tumor weight, dose: 5.0 mg/kg/injection, schedule: Q01DX011 (ip), vehicle: saline, higher = larger tumour): 37 % of control

CC(=O)NNC(=O)c1ccccc1CO
T/C [3]: 95 % of control
T/C (endpoint: median survival time, dose: 50.0 mg/kg/injection, schedule: Q01DX009 (ip), vehicle: saline with Tween-80, higher = longer survival): 95 % of control
T/C (endpoint: median survival time, dose: 100.0 mg/kg/injection, schedule: Q01DX009 (ip), vehicle: saline with Tween-80, higher = longer survival): 98 % of control
T/C (endpoint: median survival time, dose: 200.0 mg/kg/injection, schedule: Q01DX009 (ip), vehicle: saline with Tween-80, higher = longer survival): 93 % of control
